# According to patent publication US20260130850A1, “TRANSDERMAL DELIVERY FORMULATIONS AND METHODS FOR THE MANUFACTURE THEREOF” (LIFEACTIVE, INC., priority 2023, published 2026):
# Columns and labels:
# [1] = Acidic dissociation constants (pKa) of strong and weak organic acids; assay type: physicochemical; settings: water; in H2O at ~15-20° C.; Table 2 weak organic acids; read-out: Median pKa
# [2] = in H2O at ~15-20° C.; Table 2 weak organic acids; cited from earlier work
pKa [1],Compound,pKa1 [2],pKa3 [2]
5.6,O=c1[nH]c(=O)c2[nH]c(=O)[nH]c2[nH]1 [Uric Acid],5.6,
,Citric Acid,,6.40
